Earlier results on four molecules are cited in patent publication US20230243817A1, “USES, METHODS AND PRODUCTS RELATING TO OLIGOMERIC LIPOPOLYSACCHARIDE BINDING PROTEINS” (priority 2020, published 2023).

The conditions of this data set: for Kd: read-out: KD for LPS.

By Kd is commonly meant the equilibrium constant for the complex coming apart. Take MD-2: human LPS immune receptor: the Kd is 2.33 µM.

Take TLR4: human LPS immune receptor: the Kd was 141 µM.

Take polymyxin B [reference compound]: the Kd was 48 µM. For the same molecule, under “depending on the bacterial strain”, the Reported binding affinity result is given as “micromolar range”.

B1: LPS binding protein: human LPS immune receptor (protein, UniProt P18428 26-481, looked up)
Lipopolysaccharide-binding …: ANPGLVARITDKGLQYAAQEGLLALQSELLRITLPDFTGDLRIPHVGRGRYEFHSLNIHSCELLHSALRPVPGQGLSLSISDSSIRVQGRWKVRKSFFKLQGSFDVSVKGISISVNLLLGSESSGRPTVTASSCSSDIADVEVDMSGDLGWLLNLFHNQIESKFQKVLESRICEMIQKSVSSDLQPYLQTLPVTTEIDSFADIDYSLVEAPRATAQMLEVMFKGEIFHRNHRSPVTLLAAVMSLPEEHNKMVYFAISDYVFNTASLVYHEEGYLNFSITDDMIPPDSNIRLTTKSFRPFVPRLARLYPNMNLELQGSVPSAPLLNFSPGNLSVDPYMEIDAFVLLPSSSKEPVFRLSVATNVSATLTFNTSKITGFLKPGKVKVELKESKVGLFNAELLEALLNYYILNTFYPKFNDKLAEGFPLPLLKRVQLYDLGLQIHKDFLFLGANVQYMRV
Turning to B1, the Kd was 0.0035 µM.
